Results from ChEMBL document CHEMBL3596112, “Sulfonium ions as inhibitors of the mycobacterial galactofuranosyltransferase GlfT2” (Medchemcomm, 2014).
Active and inactive are the calls of the source. The calls are words filed in the database; no cut-off is given here.

target: T1, Galactofuranosyltransferase GlfT2 (Mycobacterium tuberculosis) (UniProt O53585); test: Inhibition of Mycobacterium tuberculosis recombinant GlfT2 using beta-D-Galf-(1-5)-beta-D-Galf-(1-6)-beta-D-Galf-octyl as acceptor and UDP-Galf as donor substrate at 4 mM by coupled spectrophotometric assay
T1 sequence (whole entry): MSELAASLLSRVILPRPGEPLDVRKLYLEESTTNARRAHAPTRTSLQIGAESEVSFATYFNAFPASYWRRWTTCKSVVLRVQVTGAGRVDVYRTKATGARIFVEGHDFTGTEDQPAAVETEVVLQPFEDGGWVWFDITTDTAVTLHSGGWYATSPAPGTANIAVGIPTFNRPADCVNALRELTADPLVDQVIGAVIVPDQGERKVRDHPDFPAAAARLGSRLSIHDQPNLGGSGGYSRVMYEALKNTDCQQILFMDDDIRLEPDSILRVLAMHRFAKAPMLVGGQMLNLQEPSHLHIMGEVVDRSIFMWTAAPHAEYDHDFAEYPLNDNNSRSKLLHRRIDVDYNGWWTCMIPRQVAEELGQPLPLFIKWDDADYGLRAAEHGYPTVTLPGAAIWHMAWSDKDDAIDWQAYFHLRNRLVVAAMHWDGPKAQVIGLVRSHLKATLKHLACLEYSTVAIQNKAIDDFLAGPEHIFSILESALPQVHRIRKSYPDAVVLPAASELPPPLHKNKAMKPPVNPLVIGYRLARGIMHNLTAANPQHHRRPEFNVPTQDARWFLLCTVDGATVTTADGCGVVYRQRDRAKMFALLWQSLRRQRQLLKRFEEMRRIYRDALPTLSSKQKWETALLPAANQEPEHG

Which inhibition does the source give for `O=c1ccn([C@@H]2O[C@H](COCCC[S+]3C[C@H]([C@H](O)CO)[C@H](O)C3)[C@@H](O)[C@H]2O)c(=O)[nH]1` (some centres undefined) here?
Its inhibition is “inactive”.

With `OC[C@@H](O)[C@H]1C[S+](CCc2ccccc2)C[C@H]1O` (some centres undefined) as the compound, how does the inhibition read?
The inhibition was “inactive”.

With `CCC[S+]1C[C@H]([C@H](O)CO)[C@H](O)C1` (some centres undefined) as the compound, how does the inhibition read?
The inhibition was “inactive”.

Which inhibition does the source give for `OCCC[S+]1C[C@H]([C@H](O)CO)[C@H](O)C1` (some centres undefined) here?
The inhibition was “inactive”.

With `COCCCCCCCC[S+]1C[C@H]([C@H](O)CO)[C@H](O)C1` (some centres undefined) as the compound, how does the inhibition read?
Its inhibition is “inactive”.

`OCCCCCCCCCCCC[S+]1C[C@H]([C@H](O)CO)[C@H](O)C1` (some centres undefined) was tested. Which inhibition did it give?
Its inhibition is 60%.

With `COCC[S+]1C[C@H]([C@H](O)CO)[C@H](O)C1` (some centres undefined) as the compound, how does the inhibition read?
The inhibition was “inactive”.

For `OCCCCCCCC[S+]1C[C@H]([C@H](O)CO)[C@H](O)C1` (some centres undefined), which inhibition is on record?
Its inhibition is “inactive”.

`O=c1ccn([C@@H]2O[C@H](COCCCC[S+]3C[C@H]([C@H](O)CO)[C@H](O)C3)[C@@H](O)[C@H]2O)c(=O)[nH]1` (some centres undefined) was tested. Which inhibition did it give?
The inhibition was “inactive”.

`OC[C@@H](O)[C@H]1C[S+](Cc2ccccc2)C[C@H]1O` (some centres undefined) was tested. Which inhibition did it give?
Its inhibition is “inactive”.

How did the inhibition turn out when `O=[N+]([O-])c1ccc(C[S+]2C[C@H]([C@H](O)CO)[C@H](O)C2)cc1` (some centres undefined) was run?
Its inhibition is “inactive”.

Which inhibition does the source give for `OC[C@@H](O)[C@H]1C[S+](CC2CCCCC2)C[C@H]1O` (some centres undefined) here?
Its inhibition is “inactive”.

How did the inhibition turn out when `CCCCCCCC[S+]1C[C@H]([C@H](O)CO)[C@H](O)C1` (some centres undefined) was run?
Its inhibition is “inactive”.

`CC(C)C[S+]1C[C@H]([C@H](O)CO)[C@H](O)C1` (some centres undefined) was tested. Which inhibition did it give?
The inhibition was “inactive”.
